pIC50: −log10 of the molar value.
Key:
[1] = molecular target: purified human, His-tagged PRC2 complex (Homo sapiens (Human), UniProt O75530); assay: Hot Spot HMT assay of PRC2 enzymatic activity (tritiated methyl transfer from SAM to core histone); format: biochemical; conditions: 10 nM purified PRC2 complex, 0.05 mg/ml core histone H3, 1 uM 3H-SAM, 1 hr at 30° C.; read-out: IC50, Inhibition of PRC2-mediated Enzymatic Activity
How it was run: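 10 nM His-tagged five-subunit PRC2 complex (EZH2, EED, SUZ12, AEBP2, RbAp48) with 0.05 mg/ml core histone H3 in pH 8 Tris buffer, 1% DMSO, preincubated with compound 20 min at 30° C; reaction started with 1 uM [3H]-SAM, 1 hr at 30° C. Filter binding plus scintillation counting; IC50 from 10-point, three-fold dilutions starting at 1.0 μM.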

[2] = system: PRC2-mediated histone H3 methylation (H3 Lys27 trimethylation) in Pfeiffer cells expressing mutant EZH2 (A677G); assay: Tri-Methyl Histone H3 (Lys 27) sandwich ELISA in Pfeiffer cells; format: cell-based, human; conditions: Homo sapiens; Pfeiffer cells, 96 hours incubation, ELISA; read-out: IC50, Inhibition of EZH2-mediated Histone H3 Trimethylation
How it was run: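 Pfeiffer DLBCL cells carrying EZH2 A677G were treated for 96 h at 37 °C with 3-fold dilutions, 1 μM to 0.15 nM final. Acid-extracted histones, neutralized, went into a sandwich ELISA for H3K27me3 with HRP/TMB read-out at 450 nm. Values binned A ≤250 nM, B >250–≤500 nM, C >500 nM–≤5 μM.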

[3] = system: Karpas 422 cells expressing mutant EZH2 (Y641N); assay: Karpas 422 cell viability (Cell Titre Glo) assay; format: cell-based, human; conditions: Homo sapiens, CTG viability, time point (Day 4, Day 7 or Day 11) not given, read-out: IC50, Inhibiting Proliferation of Cells Expressing an Activating Mutant Form of EZH2
How it was run: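 Cells plated at 1000/well were exposed to final concentrations from 10 μM down to 1.5 nM (3-fold steps) at 37° C. Viability was read by CellTiter-Glo on day 4, 7 or 11; day-11 plates were re-fed with compound on day 7. IC50 reported per time point in binned ranges.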

Chain of purified human, His-tagged PRC2 complex (Q15910 whole entry): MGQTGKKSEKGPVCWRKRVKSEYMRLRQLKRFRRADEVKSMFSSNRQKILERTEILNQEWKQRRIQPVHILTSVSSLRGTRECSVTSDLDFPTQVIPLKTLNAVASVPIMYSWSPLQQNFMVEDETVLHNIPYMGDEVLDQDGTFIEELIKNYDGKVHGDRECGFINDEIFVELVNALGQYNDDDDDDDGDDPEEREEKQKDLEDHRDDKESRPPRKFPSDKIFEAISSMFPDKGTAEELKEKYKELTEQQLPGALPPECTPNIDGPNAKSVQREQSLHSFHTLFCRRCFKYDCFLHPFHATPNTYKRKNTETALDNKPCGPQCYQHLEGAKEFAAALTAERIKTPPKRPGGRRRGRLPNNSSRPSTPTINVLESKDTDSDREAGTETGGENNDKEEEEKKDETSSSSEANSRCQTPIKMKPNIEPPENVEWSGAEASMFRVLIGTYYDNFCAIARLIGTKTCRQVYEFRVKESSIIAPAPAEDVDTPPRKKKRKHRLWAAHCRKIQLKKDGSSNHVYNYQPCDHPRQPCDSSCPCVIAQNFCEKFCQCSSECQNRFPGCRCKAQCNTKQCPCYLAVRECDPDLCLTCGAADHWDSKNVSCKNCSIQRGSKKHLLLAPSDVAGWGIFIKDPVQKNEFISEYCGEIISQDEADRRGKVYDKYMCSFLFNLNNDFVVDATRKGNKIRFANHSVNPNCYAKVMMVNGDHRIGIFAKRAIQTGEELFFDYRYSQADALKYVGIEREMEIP
Chain of purified human, His-tagged PRC2 complex (O75530 whole entry): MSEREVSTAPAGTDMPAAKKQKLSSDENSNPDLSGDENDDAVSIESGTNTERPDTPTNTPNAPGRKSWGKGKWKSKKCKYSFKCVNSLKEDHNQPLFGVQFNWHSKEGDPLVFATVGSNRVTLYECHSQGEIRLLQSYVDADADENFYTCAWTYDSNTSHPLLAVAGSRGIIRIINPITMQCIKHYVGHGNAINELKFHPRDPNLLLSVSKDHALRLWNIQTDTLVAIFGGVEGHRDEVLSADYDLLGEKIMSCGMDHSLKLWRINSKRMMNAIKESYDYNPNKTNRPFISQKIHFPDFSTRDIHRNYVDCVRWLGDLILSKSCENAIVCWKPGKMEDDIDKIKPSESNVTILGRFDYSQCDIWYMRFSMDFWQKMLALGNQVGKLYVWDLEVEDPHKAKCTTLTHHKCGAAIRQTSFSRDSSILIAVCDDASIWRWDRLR
Chain of purified human, His-tagged PRC2 complex (Q15022 whole entry partner): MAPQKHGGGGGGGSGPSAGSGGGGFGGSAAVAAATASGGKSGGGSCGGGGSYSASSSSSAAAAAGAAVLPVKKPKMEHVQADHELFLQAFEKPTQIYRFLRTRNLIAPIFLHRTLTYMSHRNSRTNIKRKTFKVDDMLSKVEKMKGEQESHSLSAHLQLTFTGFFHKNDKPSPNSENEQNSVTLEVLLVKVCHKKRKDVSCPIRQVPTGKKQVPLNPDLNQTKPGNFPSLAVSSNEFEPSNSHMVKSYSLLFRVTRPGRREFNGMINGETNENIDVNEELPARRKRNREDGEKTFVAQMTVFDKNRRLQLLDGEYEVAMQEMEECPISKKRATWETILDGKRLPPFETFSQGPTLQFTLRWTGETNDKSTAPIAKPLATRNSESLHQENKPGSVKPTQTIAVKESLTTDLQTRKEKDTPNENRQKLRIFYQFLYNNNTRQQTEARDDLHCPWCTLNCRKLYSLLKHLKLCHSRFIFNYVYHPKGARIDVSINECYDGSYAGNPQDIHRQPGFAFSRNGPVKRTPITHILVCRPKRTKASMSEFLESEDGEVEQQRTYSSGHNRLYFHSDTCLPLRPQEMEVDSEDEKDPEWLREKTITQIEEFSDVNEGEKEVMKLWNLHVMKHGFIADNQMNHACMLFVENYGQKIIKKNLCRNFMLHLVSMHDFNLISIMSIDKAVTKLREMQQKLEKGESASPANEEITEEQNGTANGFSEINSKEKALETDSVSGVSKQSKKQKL
Chain of purified human, His-tagged PRC2 complex (Q6ZN18 whole entry partner): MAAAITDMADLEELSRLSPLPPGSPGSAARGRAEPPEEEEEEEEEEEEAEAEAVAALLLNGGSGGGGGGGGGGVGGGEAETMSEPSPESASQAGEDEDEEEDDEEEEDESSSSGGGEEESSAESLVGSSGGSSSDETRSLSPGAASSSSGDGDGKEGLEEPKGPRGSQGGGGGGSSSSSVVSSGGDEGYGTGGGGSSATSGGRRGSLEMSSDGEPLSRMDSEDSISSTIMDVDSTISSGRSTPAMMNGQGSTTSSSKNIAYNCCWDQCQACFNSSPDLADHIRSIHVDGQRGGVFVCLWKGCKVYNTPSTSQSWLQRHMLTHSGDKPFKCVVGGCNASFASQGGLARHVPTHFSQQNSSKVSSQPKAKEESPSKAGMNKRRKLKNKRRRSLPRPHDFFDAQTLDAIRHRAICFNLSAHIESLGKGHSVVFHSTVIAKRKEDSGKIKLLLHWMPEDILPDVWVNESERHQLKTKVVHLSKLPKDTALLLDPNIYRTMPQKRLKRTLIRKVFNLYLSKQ
Chain of purified human, His-tagged PRC2 complex (Q09028 whole entry partner): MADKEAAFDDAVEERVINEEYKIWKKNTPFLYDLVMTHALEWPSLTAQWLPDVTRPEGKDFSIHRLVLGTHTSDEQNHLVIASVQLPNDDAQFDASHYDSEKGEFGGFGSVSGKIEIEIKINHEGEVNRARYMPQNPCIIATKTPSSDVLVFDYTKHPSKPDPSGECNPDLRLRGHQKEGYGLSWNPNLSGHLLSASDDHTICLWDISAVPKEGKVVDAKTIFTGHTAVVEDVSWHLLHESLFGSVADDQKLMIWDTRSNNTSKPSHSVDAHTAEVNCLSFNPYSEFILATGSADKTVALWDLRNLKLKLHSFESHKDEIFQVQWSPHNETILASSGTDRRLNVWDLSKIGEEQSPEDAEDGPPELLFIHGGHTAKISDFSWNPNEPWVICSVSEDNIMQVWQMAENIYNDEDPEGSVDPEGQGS

SMILES	pIC50 [1]	pIC50 [2]	pIC50 [3]
CC(N)c1cn2c(NCc3c(F)ccc4c3CCO4)ncc(-c3cc(C(F)(F)F)nn3C)c2n1 (stereo not drawn) [Example 36, 2-(1-aminoethyl)-N-((5-fluoro-2,3-dihydrobenzofuran-4-yl)methyl)-8-(1-methyl-3-(trifluoromethyl)-1H-pyrazol-5-yl)imidazo[1,2-c]pyrimidin-5-amine]	> 6.60	> 6.60	> 6.60
Cc1cc(CN(C)C)ccc1-c1cnc(NCc2c(F)ccc3c2CCO3)n2cc(C(C)N)nc12 (stereo not drawn) [Example 37, 2-(1-aminoethyl)-8-(4-((dimethylamino)methyl)-2-methylphenyl)-N-((5-fluoro-2,3-dihydrobenzofuran-4-yl)methyl)imidazo[1,2-c]pyrimidin-5-amine]	> 6.60	> 6.60	> 6.60
Cc1cc(-c2cnc(NCc3c(F)ccc4c3CCO4)n3cc(C(C)N)nc23)ccn1 (stereo not drawn) [Example 38, 2-(1-aminoethyl)-N-((5-fluoro-2,3-dihydrobenzofuran-4-yl)methyl)-8-(2-methylpyridin-4-yl)imidazo[1,2-c]pyrimidin-5-amine]	> 6.60	> 6.60	> 6.60
CC(N)c1cn2c(NCc3c(F)ccc4c3CCO4)ncc(-c3cc(C#N)nn3C)c2n1 (stereo not drawn) [Example 40, 5-(2-(1-aminoethyl)-5-(((5-fluoro-2,3-dihydrobenzofuran-4-yl)methyl)amino)imidazo[1,2-c]pyrimidin-8-yl)-1-methyl-1H-pyrazole-3-carbonitrile]	> 6.60	> 6.60	> 6.60

Results, then the compound that gave them:

pIC50 [1]	pIC50 [2]	pIC50 [3]	SMILES
> 6.60	> 6.60	> 6.60	Cc1cc(C(=O)N(C)C)ncc1-c1cnc(NCc2c(F)ccc3c2CCO3)n2cc(C(C)N)nc12 (stereo not drawn) [Example 35, 5-(2-(1-aminoethyl)-5-(((5-fluoro-2,3-dihydrobenzofuran-4-yl)methyl)amino)imidazo[1,2-c]pyrimidin-8-yl)-N,N,4-trimethylpicolinamide]
> 6.60	> 6.60	> 6.60	Cc1ncccc1-c1cnc(NCc2c(F)ccc3c2CCO3)n2cc(C(C)N)nc12 (stereo not drawn) [Example 39, 2-(1-aminoethyl)-N-((5-fluoro-2,3-dihydrobenzofuran-4-yl)methyl)-8-(2-methylpyridin-3-yl)imidazo[1,2-c]pyrimidin-5-amine]
> 6.60	> 6.60	> 6.60	Cc1cc(-c2cnc(NCc3c(F)ccc4c3CCO4)n3cc(C(N)C4CC4)nc23)n(C)n1 (stereo not drawn) [Example 41, 2-(amino(cyclopropyl)methyl)-8-(1,3-dimethyl-1H-pyrazol-5-yl)-N-((5-fluoro-2,3-dihydrobenzofuran-4-yl)methyl)imidazo[1,2-c]pyrimidin-5-amine]
> 6.60	> 6.60	> 6.60	Cc1cc(-c2cnc(NCc3c(F)ccc4c3CCO4)n3cc(-c4nnco4)nc23)n(C)n1 [Example 44, 8-(1,3-dimethyl-1H-pyrazol-5-yl)-N-((5-fluoro-2,3-dihydrobenzofuran-4-yl)methyl)-2-(1,3,4-oxadiazol-2-yl)imidazo[1,2-c]pyrimidin-5-amine]
> 6.60	6.30 to 6.60	> 6.60	Cc1cc(-c2cnc(NCc3c(F)ccc4c3CCO4)n3cc(-c4cnco4)nc23)n(C)n1 [Example 45, 8-(1,3-dimethyl-1H-pyrazol-5-yl)-N-((5-fluoro-2,3-dihydrobenzofuran-4-yl)methyl)-2-(oxazol-5-yl)imidazo[1,2-c]pyrimidin-5-amine]
